Among the data in patent publication US20260240847A1, “COMPOUNDS WITH ANTI-TUMOR ACTIVITY AGAINST CANCER CELLS BEARING TYROSINE KINASE INHIBITOR RESISTANT EGFR MUTATIONS” (BOARD OF REGENTS, THE UNIVERSITY OF TEXAS SYSTEM, priority 2019, published 2026) are IC50 values, retold here.

SMILES strings stand for the structures.

A word on the IC50: it is the concentration at which inhibition is half-maximal.

What all share (assay): Ba/F3 cell viability, Cell Titer Glo
In general terms: In ATP-based viability assays light output follows the ATP content of the culture.

For one assay, the target named is EGFR E709AG719S (Homo sapiens, UniProt P00533, E709A/G719S). The note with it: read-out: IC50 Values; Ba/F3 cells expressing EGFR E709AG719S, 72 hours.
A further assay has as its target EGFR L718Q (Homo sapiens, UniProt P00533, L718Q). The note with it: read-out: IC50 Values; Ba/F3 cells expressing EGFR L718Q, 72 hours.
The target in a further assay is EGFR L718V (Homo sapiens, UniProt P00533, L718V). The note with it: read-out: IC50 Values; Ba/F3 cells expressing EGFR L718V, 72 hours.
Another assay deals with EGFR G719S (Homo sapiens, UniProt P00533, G719S). The note with it: read-out: IC50 Values; Ba/F3 cells expressing EGFR G719S, 72 hours.
The next assay addresses EGFR G719A/R776C (Homo sapiens, UniProt P00533, G719A/R776C). Conditions: read-out: IC50 Values; Ba/F3 cells expressing EGFR G719A/R776C, 72 hours.
In the next assay the target is EGFR S720P (Homo sapiens, UniProt P00533, S720P). The note with it: read-out: IC50 Values; Ba/F3 cells expressing EGFR S720P, 72 hours.
In the next assay the target is EGFR G724S (Homo sapiens, UniProt P00533, G724S). The note with it: read-out: IC50 Values; Ba/F3 cells expressing EGFR G724S, 72 hours.
A further assay deals with EGFR L747S (Homo sapiens, UniProt P00533, L747S). The note with it: read-out: IC50 Values; Ba/F3 cells expressing EGFR L747S, 72 hours.
The target in the next assay is EGFR A767insASV (Homo sapiens, UniProt P00533, DUP767-769). The note with it: read-out: IC50 Values; Ba/F3 cells expressing EGFR A767insASV, 72 hours.
For the next assay, the target named is EGFR S811F (Homo sapiens, UniProt P00533, S811F). Conditions: read-out: IC50 Values; Ba/F3 cells expressing EGFR S811F, 72 hours.
For a further assay, the target named is EGFR L861R (Homo sapiens, UniProt P00533, L861R). Conditions: read-out: IC50 Values; Ba/F3 cells expressing EGFR L861R, 72 hours.
For the next assay, the target named is EGFR Ex19del G724S (Homo sapiens, UniProt P00533, DEL746-750/G724S). Conditions: read-out: IC50 Values; Ba/F3 cells expressing EGFR Ex19del G724S, 72 hours.
A further assay concerns the target EGFR Ex19delT854l (Homo sapiens, UniProt P00533, DEL746-750/T854I). The note with it: read-out: IC50 Values; Ba/F3 cells expressing EGFR Ex19delT854l, 72 hours.
The next assay has as its target EGFR L858R L718Q (Homo sapiens, UniProt P00533, L718Q/L858R). Conditions: read-out: IC50 Values; Ba/F3 cells expressing EGFR L858R L718Q, 72 hours.
The target of another assay is EGFR Ex19del G796S (Homo sapiens, UniProt P00533, DEL746-750/G796S). Conditions: read-out: IC50 Values; Ba/F3 cells expressing EGFR Ex19del G796S, 72 hours.
The target in the next assay is EGFR L858R/L792H (Homo sapiens, UniProt P00533, L792H/L858R). The note with it: read-out: IC50 Values; Ba/F3 cells expressing EGFR L858R/L792H, 72 hours.
The next assay deals with EGFR L858R G724S (Homo sapiens, UniProt P00533, G724S/L858R). Conditions: read-out: IC50 Values; Ba/F3 cells expressing EGFR L858R G724S, 72 hours.
The target of a further assay is EGFR L858R T790M L792H (Homo sapiens, UniProt P00533, L792H/L858R/T790M). The note with it: read-out: IC50 Values; Ba/F3 cells expressing EGFR L858R T790M L792H, 72 hours.
The target in a further assay is EGFR Ex19del T790M C797S (Homo sapiens, UniProt P00533, C797S/DEL746-750/T790M). Conditions: read-out: IC50 Values; Ba/F3 cells expressing EGFR Ex19del T790M C797S, 72 hours.
For the next assay, the target named is EGFR G724S T790M (Homo sapiens, UniProt P00533, G724S/T790M). Conditions: read-out: IC50 Values; Ba/F3 cells expressing EGFR G724S T790M, 72 hours.

In the case of `C=CC(=O)N1CC[C@@H](Oc2nc(Nc3ccc(N4CCC(N5CCN(C)CC5)CC4)cc3)c(C(N)=O)nc2CC)C1` [Naquotinib], the IC50 at EGFR E709AG719S turned out to be 48.1 nM; at EGFR L718Q it was 734 nM; on EGFR L718V, 78.4 nM; on EGFR G719S it was 36.7 nM; at EGFR G719A/R776C it was 39 nM; on EGFR S720P, 52.9 nM. Besides, the IC50 on EGFR G724S came to 58.1 nM; on EGFR L747S it was 120 nM; at EGFR A767insASV, 217 nM; at EGFR S811F, 173 nM; on EGFR L861R it was 12.2 nM; at EGFR Ex19del G724S it was 697 nM. The IC50 at EGFR Ex19delT854l amounted to 112 nM; at EGFR L858R L718Q it was 747 nM; at EGFR Ex19del G796S, 53.2 nM; at EGFR L858R/L792H it was 34.3 nM; on EGFR L858R G724S, 108 nM; at EGFR L858R T790M L792H it was 624 nM. For the same compound, the half-inhibitory concentration (IC50) on EGFR Ex19del T790M C797S was 1970 nM; on EGFR G724S T790M it was 18.8 nM.
